Measured values reported in patent US20230085307A1, “PYRIDAZINONE COMPOUND AND HERBICIDE” (NISSAN CHEMICAL CORPORATION, priority 2019, published 2023).

Tests used:
[1] = system: Chinese sprangletop; test: Test Example 3: herbicidal effect by foliage application, Wagner pot (Table 18, symbol D); type: in vivo, chinese sprangletop (Leptochloa chinensis); conditions: 320 g/ha
In short: (§1)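 Plants were sown in alluvial soil held under 0.1–0.5 cm standing water and grown 14 days in a greenhouse at 25–30 °C. An emulsifiable formulation, water-diluted to the set dose, was then sprayed onto the foliage, and effects were scored three weeks later using previously defined criteria.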

[2] = system: Japanese bulrush; test: Test Example 2: herbicidal activity, application during weed generation under submerged conditions (Table 17, symbol B); type: in vivo, Japanese bulrush (Schoenoplectus juncoides); conditions: AAH 320 g/ha; application during weed generation, submerged conditions
In short: (§2)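 Mixed weed seedlings in alluvial soil under a 4 cm water layer, greenhouse-grown at 25–30° C. Compound given as a diluted emulsion into the floodwater at the 1–2 leaf stage; response graded after three weeks.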

[3] = system: late watergrass; test: Test Example 1: herbicidal activity, application before weed generation under submerged conditions (Table 16, symbol A); type: in vivo, late watergrass (Echinochloa oryzicola); conditions: 320 g/ha applied herbicide
In short: (§3)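 Emulsion formulation, water-diluted to set dose, was put onto the flooded surface (4 cm depth, alluvial soil) the same day weeds were sown and 2.5-leaf rice transplanted. After 3 weeks at 25-30 °C under glass, each species was rated 0 (≤5% kill) to 5 (≥90% kill).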

[4] = system: barnyard grass; test: Test Example 3: herbicidal effect by foliage application, Wagner pot (Table 18, symbol H); type: in vivo, barnyard grass (Echinochloa crus-galli); conditions: 320 g/ha
In short: as §1

[5] = system: Japanese bulrush; test: Test Example 1: herbicidal activity, application before weed generation under submerged conditions (Table 16, symbol B); type: in vivo, Japanese bulrush (Schoenoplectus juncoides); conditions: 320 g/ha applied herbicide
In short: as §3

[6] = system: late watergrass; test: Test Example 2: herbicidal activity, application during weed generation under submerged conditions (Table 17, symbol A); type: in vivo, late watergrass (Echinochloa oryzicola); conditions: AAH 320 g/ha; application during weed generation, submerged conditions
In short: as §2

[7] = system: oval-leafed pondweed; test: Test Example 2: herbicidal activity, application during weed generation under submerged conditions (Table 17, symbol C); type: in vivo, oval-leafed pondweed (Monochoria vaginalis); conditions: AAH 320 g/ha; application during weed generation, submerged conditions
In short: as §2

[8] = system: oval-leafed pondweed; test: Test Example 1: herbicidal activity, application before weed generation under submerged conditions (Table 16, symbol C); type: in vivo, oval-leafed pondweed (Monochoria vaginalis); conditions: 320 g/ha applied herbicide
In short: as §3

[9] = system: rice flat sedge; test: Test Example 3: herbicidal effect by foliage application, Wagner pot (Table 18, symbol E); type: in vivo, rice flat sedge (Cyperus iria); conditions: 320 g/ha
In short: as §1

SMILES: CSCCCOc1ccc(-c2sc3ccccc3c2-c2c(O)c(C)nn(C)c2=O)cc1 [1-222]
- herbicidal effect on D (Chinese sprangletop), rating 0-5 [1]: 5 (Herbicidal rate of 90% or more (almost completely withered))
- herbicidal effect rating, B: Japanese bulrush [2]: 3 (Herbicidal rate of 40% or more and less than 70%)
- Herbicidal effect on A: late watergrass (grade 0-5) [3]: 5 (Herbicidal rate of 90% or more (almost completely withered))
- herbicidal effect on H (barnyard grass), rating 0-5 [4]: 5 (Herbicidal rate of 90% or more (almost completely withered))
- Herbicidal effect on B: Japanese bulrush (grade 0-5) [5]: 4 (Herbicidal rate of 70% or more and less than 90%)
- herbicidal effect rating, A: late watergrass [6]: 5 (Herbicidal rate of 90% or more (almost completely withered))
- herbicidal effect rating, C: oval-leafed pondweed [7]: 4 (Herbicidal rate of 70% or more and less than 90%)
- Herbicidal effect on C: oval-leafed pondweed (grade 0-5) [8]: 4 (Herbicidal rate of 70% or more and less than 90%)
- herbicidal effect on E (rice flat sedge), rating 0-5 [9]: 4 (Herbicidal rate of 70% or more and less than 90%)
